The values that follow come from article PMC9917249, “Zinc Inhibits the GABAAR/ATPase during Postnatal Rat Development: The Role of Cysteine Residue” (International Journal of Molecular Sciences, 2023).

The assay addresses T1, homomeric GABAAR β3 (Rattus norvegicus, UniProt P63079).
T1 construct: gene Gabrb3
The assay can be described thus: BCECF fluorescence, GABA-mediated HCO3- efflux. The format is cell-based. As to conditions: 25 mM HCO3-; pH 7.4.

T1 sequence (P63079 26-473): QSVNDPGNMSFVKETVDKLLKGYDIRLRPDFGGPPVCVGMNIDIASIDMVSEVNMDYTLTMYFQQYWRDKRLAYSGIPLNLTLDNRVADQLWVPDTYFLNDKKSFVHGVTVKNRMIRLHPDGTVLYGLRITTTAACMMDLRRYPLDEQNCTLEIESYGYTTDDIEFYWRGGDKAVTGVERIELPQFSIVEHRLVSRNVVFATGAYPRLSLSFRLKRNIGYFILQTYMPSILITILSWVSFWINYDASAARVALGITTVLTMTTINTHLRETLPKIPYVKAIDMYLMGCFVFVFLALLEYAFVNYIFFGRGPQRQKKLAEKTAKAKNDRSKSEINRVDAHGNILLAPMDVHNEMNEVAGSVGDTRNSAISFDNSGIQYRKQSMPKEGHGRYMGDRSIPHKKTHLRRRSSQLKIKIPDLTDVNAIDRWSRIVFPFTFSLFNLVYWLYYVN

In the case of `NCCCC(=O)O` [GABA], the “maximum peak fluorescence change at 100 μM GABA” value is listed as 14.0 ± 1.3%.
